Read-outs that look alike come from different tables or passages of the source.
What was measured:
[1] = test system: Key Broadleaf Weed and Crop Species; test: Post-Emergent Test II (Table 5); type: in vivo; details: post-emergence, 336 h; for pest or weed control at 70 g/ha: application rate 70 (kg ai/ha; footnote: g ai/ha); for pest or weed control at 140 g/ha: application rate 140 (kg ai/ha; footnote: g ai/ha)
How it was run: (§1)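 Plants at first or second true-leaf stage, grown 7-21 days in greenhouse, were sprayed post-emergence at 187 L/ha with compounds in acetone/DMSO/water/crop oil/surfactant mixture at the high rate and ½× to 1/16× dilutions. Injury scored visually after 14 days, 0 (none) to 100% (complete kill), versus untreated plants.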

[2] = test system: Key Grass and Sedge Weeds as well as Grass Crops; test: Post-Emergent Test II (Table 6); type: in vivo; details: post-emergence, 336 h, 14 days after application; for pest or weed control at 70 g/ha: 70 g ai/ha; for pest or weed control at 140 g/ha: 140 g ai/ha
How it was run: as §1

[3] = Abutilon theophrasti, ABUTH: velvetleaf (Abutilon theophrasti), read-out: Visual Growth Reduction (%) 14 Days After Application ABUTH
[4] = Amaranthus retroflexus, AMARE: redroot pigweed (Amaranthus retroflexus), read-out: Visual Growth Reduction (%) 14 Days After Application AMARE
[5] = Brassica napus, BRSSS: oilseed rape, canola (Brassica napus), read-out: Visual Growth Reduction (%) 14 Days After Application BRSSS
[6] = Chenopodium album, CHEAL: lambsquarters (Chenopodium album), read-out: Visual Growth Reduction (%) 14 Days After Application CHEAL
[7] = Euphorbia heterophylla, EPHHL: wild poinsettia (Euphorbia heterophylla), read-out: Visual Growth Reduction (%) 14 Days After Application EPHHL
[8] = Helianthus annuus, HELAN: sunflower (Helianthus annuus), read-out: Visual Growth Reduction (%) 14 Days After Application HELAN
[9] = Viola tricolor, VIOTR: wild pansy (Viola tricolor), read-out: Visual Growth Reduction (%) 14 Days After Application VIOTR
[10] = CYPSS, read-out: Visual Growth Reduction (%) 14 Days After Application CYPSS
[11] = DIGSA: crabgrass (Digitaria sanguinalis), read-out: Visual Growth Reduction (%) 14 Days After Application DIGSA
[12] = ECHSS, read-out: Visual Growth Reduction (%) 14 Days After Application ECHSS
[13] = ORYSS (crop), read-out: Visual Growth Reduction (%) 14 Days After Application ORYSS
[14] = SETFA: giant foxtail (Setaria faberi), read-out: Visual Growth Reduction (%) 14 Days After Application SETFA
[15] = SORVU: grain sorghum (Sorghum vulgare), read-out: Visual Growth Reduction (%) 14 Days After Application SORVU
[16] = TRZSS (crop), read-out: Visual Growth Reduction (%) 14 Days After Application TRZSS
[17] = ZEAMX: maize, corn (Zea mays), read-out: Visual Growth Reduction (%) 14 Days After Application ZEAMX

| Structure (SMILES) | pest or weed control at 70 g/ha [1, 3] [%] | pest or weed control at 140 g/ha [1, 3] [%] | pest or weed control at 70 g/ha [1, 4] [%] | pest or weed control at 140 g/ha [1, 4] [%] | pest or weed control at 70 g/ha [1, 5] [%] | pest or weed control at 140 g/ha [1, 5] [%] | pest or weed control at 70 g/ha [1, 6] [%] | pest or weed control at 140 g/ha [1, 6] [%] | pest or weed control at 70 g/ha [1, 7] [%] | pest or weed control at 70 g/ha [1, 8] [%] | pest or weed control at 140 g/ha [1, 8] [%] | pest or weed control at 70 g/ha [1, 9] [%] | pest or weed control at 140 g/ha [1, 9] [%] | pest or weed control at 70 g/ha [2, 10] [%] | pest or weed control at 140 g/ha [2, 10] [%] | pest or weed control at 70 g/ha [2, 11] [%] | pest or weed control at 140 g/ha [2, 11] [%] | pest or weed control at 70 g/ha [2, 12] [%] | pest or weed control at 140 g/ha [2, 12] [%] | pest or weed control at 70 g/ha [2, 13] [%] | other results |
| --- | --- | --- | --- | --- | --- | --- | --- | --- | --- | --- | --- | --- | --- | --- | --- | --- | --- | --- | --- | --- | --- |
| COC(=O)c1nc(-c2ccc(C(F)(F)F)nc2)cc(N)c1Cl [Compound 4] | 75 to 84 | 75 to 84 | 85 to 94 | 95 to 100 | 30 to 44 | 60 to 74 | 75 to 84 | 85 to 94 | 75 to 84 | 60 to 74 | 75 to 84 | 0 to 29 | 0 to 29 | 60 to 74 | 60 to 74 | 0 to 29 | 0 to 29 | 30 to 44 | 75 to 84 | 0 to 29 | pest or weed control at 140 g/ha [1, 7]: 85 to 94%; pest or weed control at 140 g/ha [2, 13]: 0 to 29%; pest or weed control at 70 g/ha [2, 14]: 0 to 29%; pest or weed control at 140 g/ha [2, 14]: 0 to 29%; pest or weed control at 70 g/ha [2, 15]: 45 to 59%; pest or weed control at 140 g/ha [2, 15]: 60 to 74%; pest or weed control at 70 g/ha [2, 16]: 0 to 29%; pest or weed control at 140 g/ha [2, 16]: 0 to 29%; pest or weed control at 70 g/ha [2, 17]: 0 to 29%; pest or weed control at 140 g/ha [2, 17]: 0 to 29% |
| Nc1c(F)c(-c2ccc(Br)nc2)nc(C(=O)O)c1Cl [Compound 8, 4-amino-6′-bromo-5-chloro-3-fluoro-[2,3′-bipyridine]-6-carboxylic acid] | 85 to 94 | 95 to 100 | 95 to 100 | 95 to 100 | 95 to 100 | 95 to 100 | 95 to 100 | 95 to 100 | 75 to 84 | 95 to 100 | 95 to 100 | 95 to 100 | 95 to 100 | 95 to 100 | 95 to 100 | 85 to 94 | 95 to 100 | 85 to 94 | 95 to 100 | 60 to 74 | pest or weed control at 140 g/ha [1, 7]: 95 to 100%; pest or weed control at 140 g/ha [2, 13]: 75 to 84%; pest or weed control at 70 g/ha [2, 14]: 85 to 94%; pest or weed control at 140 g/ha [2, 14]: 85 to 94%; pest or weed control at 70 g/ha [2, 15]: 85 to 94%; pest or weed control at 140 g/ha [2, 15]: 95 to 100%; pest or weed control at 70 g/ha [2, 16]: 85 to 94%; pest or weed control at 140 g/ha [2, 16]: 95 to 100%; pest or weed control at 70 g/ha [2, 17]: 85 to 94%; pest or weed control at 140 g/ha [2, 17]: 95 to 100% |
| COC(=O)c1nc(-c2ccc(C(F)(F)F)c(F)c2C)cc(N)c1Cl [Compound 9, methyl 4-amino-3-chloro-6-(3-fluoro-2-methyl-4-(trifluoromethyl)phenyl)picolinate] | 85 to 94 | 85 to 94 | 0 to 29 | 0 to 29 | 0 to 29 | 0 to 29 | 85 to 94 | 95 to 100 | 95 to 100 | 0 to 29 | 85 to 94 | 0 to 29 | 0 to 29 | 95 to 100 | 95 to 100 | 0 to 29 | 0 to 29 | 0 to 29 | 0 to 29 | 0 to 29 | pest or weed control at 140 g/ha [2, 13]: 0 to 29%; pest or weed control at 70 g/ha [2, 15]: 0 to 29%; pest or weed control at 140 g/ha [2, 15]: 30 to 44%; pest or weed control at 70 g/ha [2, 16]: 0 to 29%; pest or weed control at 140 g/ha [2, 16]: 0 to 29%; pest or weed control at 70 g/ha [2, 17]: 0 to 29%; pest or weed control at 140 g/ha [2, 17]: 30 to 44% |

From patent US10765114B2, “4-amino-6-(pyridyl and 2-substitutedphenyl)-picolinates and 6-amino-2-(pyridyl and 2-substitutedphenyl)-pyrimidine-4-carboxylates and their use as herbicides” (Dow AgroSciences LLC, priority 2013, dated 2020)
